The structures appear in SMILES notation.

What is called IC50 is the concentration that gives 50% inhibition.

microsomal 11β-HSD1, sequence (P28845 whole entry): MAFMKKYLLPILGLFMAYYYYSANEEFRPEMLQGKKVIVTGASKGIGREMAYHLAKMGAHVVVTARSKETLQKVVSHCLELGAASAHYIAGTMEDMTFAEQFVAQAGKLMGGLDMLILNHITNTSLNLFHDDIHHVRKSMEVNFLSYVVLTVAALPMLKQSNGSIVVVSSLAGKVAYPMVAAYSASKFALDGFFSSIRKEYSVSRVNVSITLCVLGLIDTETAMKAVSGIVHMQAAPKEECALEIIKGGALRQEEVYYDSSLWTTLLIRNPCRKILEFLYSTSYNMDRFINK

The target in the first assay is T1, purified 11β-HSD1 (recombinant, expressed in E. coli) (Homo sapiens, UniProt P28845).
T1 construct: made in house; host or cells: E. coli
T1 sequence (P28845 whole entry): as above
Description: Inhibition of purified 11β-HSD1, Scintillation Proximity Assay. Conditions: recombinant enzyme, 3H cortisone, NADPH, room temperature. It is filed as biochemical. How it is done: (§1) The inhibition of purified 11β-HSD1 by compounds of Formula I was measured as follows using a Scintillation Proximity Assay. All reactions were carried out at room temperature in 96 well flexible Microbeta reaction plates. The assay begins by adding 1 microliter of a 0.1 mM solution of a compound of Formula I in DMSO previously diluted in half-log increments (8 points) starting at 1 micromolar final concentration. To this dot was added 50 microliters of substrate solution (50 mM HEPES, pH 7.4, 100 mM KCl, 5 mM NaCl, 2 mM MgCl2 containing […] of ^3H cortisone, 1 mM NADPH). After a 10 minute incubation, 50 microliters of enzyme solution containing 20 nM recombinant 11β-HSD1 (expressed in E. coli, and affinity purified) was added, The reaction was incubated for 90 minutes, and stopped by adding 50 microliters of SPA bead mix (18-β-glycyrrhetinic acid, 10 micromolar final, 5 mg/ml protein A coated YSi SPA beads, and 1-microgram/ml alpha-cortisol antibody (East Coast Biologics). The plate shaken for 120 minutes, and the radioactivity corresponding to ^3H cortisol was measured on a Wallac Microbeta.
(Scintillation proximity formats need no separation of bound from free tracer.)
With `CN1C(=O)N(C2C3CC4CC(C3)CC2C4)C[C@@H]1C(C)(C)C` (stereo partly drawn) [Example 28, (S)-1-(2-adamantyl)-4-tert-butyl-3-methylimidazolidin-2-one], the IC50 is less than 50 nM.
On the same count and under the same terms, the value for `CC(C)(C)[C@H]1CN(C2C3CC4CC(C3)CC2C4)C(=O)O1` (stereo partly drawn) [Example 12, (S)-3-(2-adamantyl)-5-tert-butyloxazolidin-2-one] was less than 50 nM.

A further assay concerns the target microsomal 11β-HSD1 (Homo sapiens, UniProt P28845). Kind of assay: Inhibition of microsomal 11β-HSD1, Scintillation Proximity Assay. Format: biochemical. The following applies: microsomal enzyme, same manner as purified enzyme assay. How it is done: as §1
The inhibition of microsomal 11β-HSD1 was carried out in the same manner.
For the molecule `CN1C(=O)N(C2C3CC4CC(C3)CC2C4)C[C@@H]1C(C)(C)C` (stereo partly drawn) [Example 28, (S)-1-(2-adamantyl)-4-tert-butyl-3-methylimidazolidin-2-one], the IC50 was less than 50 nM.
On the same count and under the same terms, the value for `CC(C)(C)[C@H]1CN(C2C3CC4CC(C3)CC2C4)C(=O)O1` (stereo partly drawn) [Example 12, (S)-3-(2-adamantyl)-5-tert-butyloxazolidin-2-one] was less than 50 nM; that for `O=C1N[C@@H](C2CCCCC2)CN1C1C2CC3CC(C2)CC1C3` (stereo partly drawn) [Example 32, (S)-4-cyclohexyl-1-(2-adamantyl)imidazolidin-2-one] was less than 50 nM.
Still for that read-out and setting: the value for `O=C1OC(c2cccc(-c3ccccc3)c2)CN1C1C2CC3CC(C2)CC1C3` (racemic) [Example 37, (±)-5-(biphenyl-3-yl)-3-(2-adamantyl)oxazolidin-2-one] was less than 50 nM.

In the next assay the target is T2, 11β-HSD1 in whole cells (omental adipocytes) (Homo sapiens, UniProt P28845).
T2 construct: host or cells: omental adipocytes differentiated from preadipocytes
T2 sequence (P28845 whole entry): as above
Kind of assay: Inhibition of 11β-HSD1 in whole cells (omental adipocytes), cortisone to cortisol conversion, SPA. Format: cell-based. The following applies: 100 nM [3H] cortisone, 37 degrees C. The protocol: The inhibition of 11β-HSD1 by compounds of Formula I in whole cells was measured as follows. Omental adipocytes cultured in 96-well plates were purchased from Zen-Bio, Inc. and used at least two weeks after differentiation from precursor preadipocytes started in medium supplemented with adipogenic and lipogenic hormones (human insulin, dexamethasone, isobutylmethylxanthine and PPAR-gamma agonist). The cells were maintained in full adipocyte medium (DMEM/Ham's F-12 (1:1, v/v), HEPES pH 7.4, fetal bovine serum, penicillin, streptomycin and Amphotericin B, supplied by Zen-Bio, Inc.) at 37 degrees C., 5% CO2 and transferred into serum-free, phenol red free medium for overnight incubation. The assay was performed in a total volume of 200 microliters. The cells were pre-incubated with serum-free, phenol red free medium containing 0.1% (v/v) of DMSO and various concentrations of compounds of Formula I at least 1 h before [^3H] cortisone in ethanol (50 Ci/mmol, ARC, Inc.) was added to achieve final concentration of cortisone of 100 nM. The cells were incubated for 3-4 at 37 degrees Centigrade, 5% CO2. Negative controls were incubated without radioactive substrate and received the same amount of [^3H] cortisone at the end of the incubation. Formation of [^3H] cortisol was monitored by analyzing 25 microliters of each supernatant in scintillation proximity assay (SPA). (Solly, K.; Mundt, S. S.; Zokian, H. J.; Ding, G. J.; Hermanowski-Vosatka, A.; Strulovici, B.; Zheng, W. Assay Drug Dev. Technol. 2005, 3, 377-384),
In the case of `CN1C(=O)N(C2C3CC4CC(C3)CC2C4)C[C@@H]1C(C)(C)C` (stereo partly drawn) [Example 28, (S)-1-(2-adamantyl)-4-tert-butyl-3-methylimidazolidin-2-one], the IC50 was less than 50 nM.
Still for that read-out and setting: the value for `CC(C)(C)[C@H]1CN(C2C3CC4CC(C3)CC2C4)C(=O)O1` (stereo partly drawn) [Example 12, (S)-3-(2-adamantyl)-5-tert-butyloxazolidin-2-one] was less than 50 nM; that for `O=C1N[C@@H](C2CCCCC2)CN1C1C2CC3CC(C2)CC1C3` (stereo partly drawn) [Example 32, (S)-4-cyclohexyl-1-(2-adamantyl)imidazolidin-2-one] was less than 50 nM.
Still for that read-out and setting: the value for `O=C1OC(c2cccc(-c3ccccc3)c2)CN1C1C2CC3CC(C2)CC1C3` (racemic) [Example 37, (±)-5-(biphenyl-3-yl)-3-(2-adamantyl)oxazolidin-2-one] was 50 to 1000 nM.

The record behind these values is patent US8835426B2, “Cyclic urea and carbamate inhibitors of 11β-hydroxysteroid dehydrogenase 1” (Vitae Pharmaceuticals, Inc., priority 2007, dated 2014).
